Key:
[1] = target: Protein kinase C delta type (Homo sapiens) (UniProt Q05655); assay: Inhibition of recombinant human PKCdelta (2 to end residues) assessed as residual activity at 10 uM using ERMRPRKRQGSVRRRV as substrate measured after 40 mins in presence of [gamma33P]ATP by scintillation counting method
[2] = tested on: RAC-gamma serine/threonine-protein kinase (Homo sapiens), Q9Y243 [S472D]; assay: Inhibition of recombinant full-length human PKBgamma S472D mutant (117 to end residues) assessed as residual activity at 10 uM using GRPRTSSFAEGKK as substrate measured after 40 mins in presence of [gamma33P]ATP by scintillation counting method
[3] = tested on: Hepatocyte growth factor receptor (Homo sapiens), P08581 [D1228N]; assay: Inhibition of recombinant human MET A1209G/V1290L/D1246N mutant (974 to end residues) assessed as residual activity at 10 uM using KKKGQEEEYVFIE as substrate measured after 40 mins in presence of [gamma33P]ATP by scintillation counting method
[4] = target: Dual specificity mitogen-activated protein kinase kinase 2 (Homo sapiens) (UniProt P36507); assay: Inhibition of recombinant full-length human MEK2 assessed as residual activity at 10 uM using MBP as substrate measured after 40 mins in presence of [gamma33P]ATP by scintillation counting method
[5] = species on record: Mus musculus; assay: Inhibition of recombinant mouse ARG M982V/A562 mutant (27 to end residues) assessed as residual activity at 10 uM using EAIYAAPFAKKK as substrate measured after 40 mins in presence of [gamma33P]ATP by scintillation counting method
[6] = tested on: HCT-116; assay: Induction of apoptosis in human HCT116 cells assessed as early apoptotic cells at 25 nM measured after 48 hrs by Annexin V-FITC/propidium iodide staining-based flow cytometry (reference value: 0.418%); type: functional
[7] = tested on: SW-620; assay: Induction of apoptosis in human SW620 cells measured after 48 hrs by Annexin V-FITC/propidium iodide staining-based flow cytometric analysis; type: functional, cell-based
[8] = tested on: SW-620; assay: Induction of apoptosis in human SW620 cells assessed as increase in cleaved caspase9 expression measured after 48 hrs by Western blot analysis; type: functional, cell-based
[9] = target: Tyrosine-protein kinase Fyn (Homo sapiens) (UniProt P06241); assay: Inhibition of recombinant full-length human FYN assessed as residual activity at 10 uM using Cdc2 peptide as substrate measured after 40 mins in presence of [gamma33P]ATP by scintillation counting method
[10] = target: Serine/threonine-protein kinase haspin (Homo sapiens) (UniProt Q8TF76); assay: Inhibition of recombinant human haspin (471 to end residues) assessed as residual activity at 10 uM using RARTLSFAEPG as substrate measured after 40 mins in presence of [gamma33P]ATP by scintillation counting method
[11] = target: cGMP-dependent protein kinase 2 (Homo sapiens) (UniProt Q13237); assay: Inhibition of recombinant full-length human PRKG2 assessed as residual activity at 10 uM using KKLRRTLSFAEPG as substrate measured after 40 mins in presence of [gamma33P]ATP by scintillation counting method
[12] = tested on: HCT-116; assay: Induction of apoptosis in human HCT116 cells assessed as early apoptotic cells at 50 nM measured after 48 hrs by Annexin V-FITC/propidium iodide staining-based flow cytometry (reference value: 0.418%); type: functional

Chain of Protein kinase C delta type (Homo sapiens) (Q05655 whole entry, looked up): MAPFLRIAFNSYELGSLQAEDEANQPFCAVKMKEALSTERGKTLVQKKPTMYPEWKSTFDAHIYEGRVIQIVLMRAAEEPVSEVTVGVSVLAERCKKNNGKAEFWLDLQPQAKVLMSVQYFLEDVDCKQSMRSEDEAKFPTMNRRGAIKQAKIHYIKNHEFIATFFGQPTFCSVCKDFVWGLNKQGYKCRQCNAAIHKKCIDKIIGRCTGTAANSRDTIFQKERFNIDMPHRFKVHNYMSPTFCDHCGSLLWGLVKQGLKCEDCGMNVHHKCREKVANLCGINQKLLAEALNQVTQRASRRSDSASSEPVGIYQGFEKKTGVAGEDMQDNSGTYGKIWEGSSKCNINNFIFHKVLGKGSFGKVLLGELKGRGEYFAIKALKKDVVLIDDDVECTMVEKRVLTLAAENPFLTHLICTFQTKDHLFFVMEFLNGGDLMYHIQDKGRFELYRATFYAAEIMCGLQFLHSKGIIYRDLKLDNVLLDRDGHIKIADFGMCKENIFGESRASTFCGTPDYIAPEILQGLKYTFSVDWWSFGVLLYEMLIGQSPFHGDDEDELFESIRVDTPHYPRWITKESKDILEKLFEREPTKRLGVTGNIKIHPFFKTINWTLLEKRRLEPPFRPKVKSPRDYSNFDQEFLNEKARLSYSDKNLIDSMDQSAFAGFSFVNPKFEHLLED
Chain of Tyrosine-protein kinase Fyn (Homo sapiens) (P06241 2-537 limits assumed): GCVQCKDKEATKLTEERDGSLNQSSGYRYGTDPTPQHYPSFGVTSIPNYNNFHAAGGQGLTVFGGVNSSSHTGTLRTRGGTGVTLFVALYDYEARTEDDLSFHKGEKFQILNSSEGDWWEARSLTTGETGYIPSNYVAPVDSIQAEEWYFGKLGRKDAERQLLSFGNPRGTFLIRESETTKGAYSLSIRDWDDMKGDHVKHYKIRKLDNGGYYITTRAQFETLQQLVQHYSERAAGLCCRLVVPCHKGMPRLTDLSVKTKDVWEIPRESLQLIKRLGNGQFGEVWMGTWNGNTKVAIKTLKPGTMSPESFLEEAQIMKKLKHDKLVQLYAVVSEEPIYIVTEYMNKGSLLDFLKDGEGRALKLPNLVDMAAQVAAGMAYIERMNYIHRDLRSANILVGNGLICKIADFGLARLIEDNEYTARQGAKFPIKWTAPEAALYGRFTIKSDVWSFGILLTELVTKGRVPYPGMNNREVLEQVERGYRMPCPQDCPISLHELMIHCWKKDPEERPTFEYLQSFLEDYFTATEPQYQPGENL
Chain of RAC-gamma serine/threonine-protein kinase (Homo sapiens), Q9Y243 [S472D] (Q9Y243 whole entry S472D): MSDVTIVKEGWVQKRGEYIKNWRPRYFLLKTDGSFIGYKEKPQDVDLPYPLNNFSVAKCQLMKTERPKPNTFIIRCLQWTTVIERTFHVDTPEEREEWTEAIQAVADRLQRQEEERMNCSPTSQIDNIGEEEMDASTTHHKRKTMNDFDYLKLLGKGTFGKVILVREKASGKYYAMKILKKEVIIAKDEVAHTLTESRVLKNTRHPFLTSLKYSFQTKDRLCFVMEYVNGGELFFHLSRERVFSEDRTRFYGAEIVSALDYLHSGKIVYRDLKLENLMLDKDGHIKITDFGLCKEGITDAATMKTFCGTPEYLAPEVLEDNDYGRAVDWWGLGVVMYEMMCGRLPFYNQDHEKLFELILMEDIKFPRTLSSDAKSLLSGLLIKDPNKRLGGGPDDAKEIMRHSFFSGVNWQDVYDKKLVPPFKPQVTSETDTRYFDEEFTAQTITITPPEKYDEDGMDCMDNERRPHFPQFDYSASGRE
Chain of cGMP-dependent protein kinase 2 (Homo sapiens) (Q13237 whole entry): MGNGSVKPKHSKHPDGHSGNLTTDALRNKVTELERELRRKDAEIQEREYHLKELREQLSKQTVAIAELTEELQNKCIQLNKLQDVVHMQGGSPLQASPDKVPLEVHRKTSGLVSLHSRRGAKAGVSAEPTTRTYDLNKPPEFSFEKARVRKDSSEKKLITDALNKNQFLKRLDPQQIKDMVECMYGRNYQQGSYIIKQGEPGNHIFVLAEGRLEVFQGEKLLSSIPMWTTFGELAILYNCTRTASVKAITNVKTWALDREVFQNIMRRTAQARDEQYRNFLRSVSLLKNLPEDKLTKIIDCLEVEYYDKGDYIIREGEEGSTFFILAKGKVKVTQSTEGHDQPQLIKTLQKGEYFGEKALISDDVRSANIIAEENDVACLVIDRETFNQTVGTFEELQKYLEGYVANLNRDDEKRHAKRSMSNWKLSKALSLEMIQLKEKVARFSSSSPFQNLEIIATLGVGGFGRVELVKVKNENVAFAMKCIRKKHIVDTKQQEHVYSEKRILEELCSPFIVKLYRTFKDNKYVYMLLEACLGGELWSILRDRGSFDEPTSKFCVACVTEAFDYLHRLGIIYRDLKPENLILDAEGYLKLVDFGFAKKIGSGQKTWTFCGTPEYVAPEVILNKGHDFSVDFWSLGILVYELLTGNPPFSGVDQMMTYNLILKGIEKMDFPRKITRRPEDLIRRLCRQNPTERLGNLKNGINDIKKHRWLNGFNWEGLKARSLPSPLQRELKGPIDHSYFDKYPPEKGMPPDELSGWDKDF
Chain of Serine/threonine-protein kinase haspin (Homo sapiens) (Q8TF76 whole entry): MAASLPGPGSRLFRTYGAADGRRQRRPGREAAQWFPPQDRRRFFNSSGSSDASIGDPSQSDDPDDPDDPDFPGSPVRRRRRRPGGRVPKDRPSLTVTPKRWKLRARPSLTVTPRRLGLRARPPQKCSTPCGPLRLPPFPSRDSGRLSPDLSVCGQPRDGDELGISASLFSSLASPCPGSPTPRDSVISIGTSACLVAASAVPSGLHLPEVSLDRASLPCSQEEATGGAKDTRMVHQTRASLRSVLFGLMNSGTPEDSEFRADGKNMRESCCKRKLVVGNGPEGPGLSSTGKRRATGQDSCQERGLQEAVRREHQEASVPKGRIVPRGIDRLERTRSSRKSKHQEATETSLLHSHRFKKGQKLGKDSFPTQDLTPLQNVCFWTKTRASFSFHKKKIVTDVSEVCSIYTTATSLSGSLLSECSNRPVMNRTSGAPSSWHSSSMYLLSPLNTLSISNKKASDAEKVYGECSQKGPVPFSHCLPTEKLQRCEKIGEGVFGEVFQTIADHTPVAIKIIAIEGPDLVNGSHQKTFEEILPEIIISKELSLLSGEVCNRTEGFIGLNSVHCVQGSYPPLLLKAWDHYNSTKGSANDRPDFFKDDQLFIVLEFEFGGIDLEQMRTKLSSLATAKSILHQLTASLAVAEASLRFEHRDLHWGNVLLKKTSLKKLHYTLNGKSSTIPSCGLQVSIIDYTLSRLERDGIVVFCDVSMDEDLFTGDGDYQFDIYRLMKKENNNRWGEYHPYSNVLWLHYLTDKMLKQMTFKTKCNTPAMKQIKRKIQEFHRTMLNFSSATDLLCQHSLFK
Chain of Dual specificity mitogen-activated protein kinase kinase 2 (Homo sapiens) (P36507 whole entry): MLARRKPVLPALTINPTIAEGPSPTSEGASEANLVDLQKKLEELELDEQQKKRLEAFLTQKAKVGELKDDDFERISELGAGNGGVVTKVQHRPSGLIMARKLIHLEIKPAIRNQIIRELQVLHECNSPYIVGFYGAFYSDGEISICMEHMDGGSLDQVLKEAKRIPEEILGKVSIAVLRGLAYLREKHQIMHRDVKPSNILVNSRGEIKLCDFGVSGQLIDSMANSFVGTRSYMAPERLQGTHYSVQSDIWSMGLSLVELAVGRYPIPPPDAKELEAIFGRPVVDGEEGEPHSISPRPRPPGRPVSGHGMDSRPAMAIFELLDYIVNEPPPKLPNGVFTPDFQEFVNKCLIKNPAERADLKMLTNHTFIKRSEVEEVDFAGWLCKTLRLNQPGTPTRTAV

## Cc1cc(C)c(CNc2nc(Cl)nc3c2ncn3C2CCCC2)c(=O)[nH]1
[1]
  Activity: 111%
[2]
  Activity: 91%
[3]
  Activity: 112%
[4]
  Activity: 109%
[5]
  Activity: 106%
[6]
  Activity: 1.54%
[7]
  Activity: Dose-dependent effect
[8]
  Activity: Dose-dependent effect
[9]
  Activity: 98%
[10]
  Activity: 89%
[11]
  Activity: 98%
[12]
  Activity: 3.57%
